Test results reported in patent publication US10532980B2, “N-methyl pyrazoles” (Prosetta Antiviral, Inc., priority 2015, dated 2020).

Each compound was assayed on Influenza A virus (A/WSN/1933(H1N1)) (assay: microbe, parasite or virus in culture). Settings: MDCK, 24 h with compound, then 2 h drug-free medium.
Format: cell-based

Row | Compound | EC90 [µM]
1 | COc1ccc(CNC(=O)c2cc(C3CC3)nn2C)cc1C(F)(F)F [Compound 26, 3-cyclopropyl-N-(4-methoxy-3-(trifluoromethyl)benzyl)-1-methyl-1H-pyrazole-5-carboxamide] | 0.8
2 | CCOc1cccc(CNC(=O)c2cc(C(C)(C)C)nn2C)c1OC(F)F [Compound 37, 3-(tert-butyl)-N-(2-(difluoromethoxy)-3-ethoxybenzyl)-1-methyl-1H-pyrazole-5-carboxamide] | 0.1
3 | COc1ccc(F)c(CNC(=O)c2cc(C(C)(C)C)nn2C)c1OC [Compound 46, 3-(tert-butyl)-N-(6-fluoro-2,3-dimethoxybenzyl)-1-methyl-1H-pyrazole-5-carboxamide] | 1
4 | CCOc1cccc(CNC(=O)c2cc(C3CC3)nn2C)c1OC(F)F [Compound 38, 3-cyclopropyl-N-(2-(difluoromethoxy)-3-ethoxybenzyl)-1-methyl-1H-pyrazole-5-carboxamide] | 0.1
5 | COc1cccc(CNC(=O)c2cc(C(C)C)nn2C)c1OC [Compound 32, N-(2,3-dimethoxybenzyl)-3-isopropyl-1-methyl-1H-pyrazole-5-carboxamide] | 1
6 | COc1c(CNC(=O)c2cc(C(C)(C)C)nn2C)cccc1OC(F)(F)F [Compound 35, 3-(tert-butyl)-N-(2-methoxy-3-(trifluoromethoxy)benzyl)-1-methyl-1H-pyrazole-5-carboxamide] | 0.2
7 | Cn1nc(C2CC2)cc1C(=O)NCc1cccc(C(F)(F)F)c1F [Compound 1, 3-cyclopropyl-N-(2-fluoro-3-(trifluoromethyl)benzyl)-1-methyl-1H-pyrazole-5-carboxamide] | 0.4
8 | CC(C)c1cc(C(=O)NCc2ccc(OCC3CC3)c(Cl)c2)n(C)n1 [Compound 15, N-(3-chloro-4-(cyclopropylmethoxy)benzyl)-3-isopropyl-1-methyl-1H-pyrazole-5-carboxamide] | 0.4
9 | Cc1c(F)cccc1CNC(=O)c1cc(C2CC2)nn1C [Compound 19, 3-cyclopropyl-N-(3-fluoro-2-methylbenzyl)-1-methyl-1H-pyrazole-5-carboxamide] | 1.5
10 | COc1cccc(CNC(=O)c2cc(C3CC3)nn2C)c1C(F)(F)F [Compound 30, 3-cyclopropyl-N-(3-methoxy-2-(trifluoromethyl)benzyl)-1-methyl-1H-pyrazole-5-carboxamide] | 0.3
11 | Cn1nc(C(C)(C)C)cc1C(=O)NCc1cccc(OC(F)(F)F)c1F [Compound 7, 3-(tert-butyl)-N-(2-fluoro-3-(trifluoromethoxy)benzyl)-1-methyl-1H-pyrazole-5-carboxamide] | 1.8
12 | Cc1cccc(CNC(=O)c2cc(C3CC3)nn2C)c1OC(F)F [Compound 21, 3-cyclopropyl-N-(2-(difluoromethoxy)-3-methylbenzyl)-1-methyl-1H-pyrazole-5-carboxamide] | 2
13 | CC(C)c1cc(C(=O)NCc2cccc(OC(F)(F)F)c2F)n(C)n1 [Compound 9, N-(2-fluoro-3-(trifluoromethoxy)benzyl)-3-isopropyl-1-methyl-1H-pyrazole-5-carboxamide] | 0.4
14 | Cc1c(CNC(=O)c2cc(C3CC3)nn2C)cccc1C(F)(F)F [Compound 22, 3-cyclopropyl-1-methyl-N-(2-methyl-3-(trifluoromethyl)benzyl)-1H-pyrazole-5-carboxamide] | 0.3
15 | Cn1nc(C2CC2)cc1C(=O)NCc1cccc(OC(F)(F)F)c1F [Compound 8, 3-cyclopropyl-N-(2-fluoro-3-(trifluoromethoxy)benzyl)-1-methyl-1H-pyrazole-5-carboxamide] | 1.5
16 | CCOc1ccc(CNC(=O)c2cc(C(C)C)nn2C)cc1Br [Compound 17, N-(3-bromo-4-ethoxybenzyl)-3-isopropyl-1-methyl-1H-pyrazole-5-carboxamide] | 0.4
17 | COc1c(Br)cccc1CNC(=O)c1cc(C2CC2)nn1C [Compound 18, N-(3-bromo-2-methoxybenzyl)-3-cyclopropyl-1-methyl-1H-pyrazole-5-carboxamide] | 1.5
18 | COc1cc(CNC(=O)c2cc(C(C)(C)C)nn2C)ccc1Cl [Compound 5, 3-(tert-butyl)-N-(4-chloro-3-methoxybenzyl)-1-methyl-1H-pyrazole-5-carboxamide] | 1.5
19 | Cn1nc(C(C)(C)C)cc1C(=O)NCc1cc(Cl)c2c(c1)OCCCO2 [Compound 45, 3-(tert-butyl)-N-((9-chloro-3,4-dihydro-2H-benzo[b][1,4]dioxepin-7-yl)methyl)-1-methyl-1H-pyrazole-5-carboxamide] | 1
20 | CC(C)c1cc(C(=O)NCc2cccc(C(F)(F)F)c2F)n(C)n1 [Compound 2, N-(2 fluoro-3-(trifluoromethyl)benzyl)-3-isopropyl-1-methyl-1H pyrazole-5-carboxamide] | 0.1
21 | Cn1nc(C(C)(C)C)cc1C(=O)NCc1cccc(OC(F)(F)F)c1O [Compound 34, 3-(tert-butyl)-N-(2-hydroxy-3-(trifluoromethoxy)benzyl)-1-methyl-1H-pyrazole-5-carboxamide] | 1.2
22 | CCOc1c(F)cc(CNC(=O)c2cc(C3CC3)nn2C)cc1Cl [Compound 43, N-(3-chloro-4-ethoxy-5-fluorobenzyl)-3-cyclopropyl-1-methyl-1H-pyrazole-5-carboxamide] | 0.4

Row | Compound | EC90 [µM]
23 | COc1cccc(CNC(=O)c2cc(C(C)(C)C)nn2C)c1O [Compound 31, 3-(tert-butyl)-N-(2-hydroxy-3-methoxybenzyl)-1-methyl-1H-pyrazole-5-carboxamide] | 1
24 | Cc1cc(CNC(=O)c2cc(C(C)C)nn2C)cc(C)c1OC(F)F [Compound 40, N-(4-(difluoromethoxy)-3,5-dimethylbenzyl)-3-isopropyl-1-methyl-1H-pyrazole-5-carboxamide] | 0.4
25 | COc1cc(CNC(=O)c2cc(C(C)(C)C)nn2C)ccc1C [Compound 27, 3-(tert-butyl)-N-(3-methoxy-4-methylbenzyl)-1-methyl-1H-pyrazole-5-carboxamide] | 1.5
26 | CCOc1ccc(CNC(=O)c2cc(C(C)(C)C)nn2C)cc1Br [Compound 16, N-(3-bromo-4-ethoxybenzyl)-3-(tert-butyl)-1-methyl-1H-pyrazole-5-carboxamide] | 1
27 | Cn1nc(C2CC2)cc1C(=O)NCc1ccc(OCC2CC2)c(Cl)c1 [Compound 14, N-(3-chloro-4-(cyclopropylmethoxy)benzyl)-3-cyclopropyl-1-methyl-1H-pyrazole-5-carboxamide] | 0.4
28 | COc1c(CNC(=O)c2cc(C3CC3)nn2C)cccc1OCC1CCCC1 [Compound 39, N-(3-(cyclopentylmethoxy)-2-methoxybenzyl)-3-cyclopropyl-1-methyl-1H-pyrazole-5-carboxamide] | 0.1
29 | CCCOc1ccc(CNC(=O)c2cc(C(C)C)nn2C)cc1Cl [Compound 13, N-(3-chloro-4-propoxybenzyl)-3-isopropyl-1-methyl-1H-pyrazole-5-carboxamide] | 0.4
30 | Cc1ccc(CNC(=O)c2cc(C(C)(C)C)nn2C)cc1Cl [Compound 11, 3-(tert-butyl)-N-(3-chloro-4-methylbenzyl)-1-methyl-1H-pyrazole-5-carboxamide] | 1.5
31 | COc1cc(CNC(=O)c2cc(C3CC3)nn2C)ccc1Cl [Compound 6, N-(4-chloro-3-methoxybenzyl)-3-cyclopropyl-1-methyl-1H-pyrazole-5-carboxamide] | 1.5
32 | Cc1cccc(CNC(=O)c2cc(C3CC3)nn2C)c1C [Compound 20, 3-cyclopropyl-N-(2,3-dimethylbenzyl)-1-methyl-1H-pyrazole-5-carboxamide] | 1.5
33 | Cn1nc(C2CC2)cc1C(=O)NCc1cccc(C(F)(F)F)c1Cl [Compound 3, N-(2-chloro-3-(trifluoromethyl)benzyl)-3-cyclopropyl-1-methyl-1H-pyrazole-5-carboxamide] | 1.1
34 | COc1ccc(CNC(=O)c2cc(C(C)(C)C)nn2C)cc1Cl [Compound 12, 3-(tert-butyl)-N-(3-chloro-4-methoxybenzyl)-1-methyl-1H-pyrazole-5-carboxamide] | 1.8
35 | COc1cccc(CNC(=O)c2cc(C3CC3)nn2C)c1C [Compound 28, 3-cyclopropyl-N-(3-methoxy-2-methylbenzyl)-1-methyl-1H-pyrazole-5-carboxamide] | 1.5
36 | CCOc1cc(F)c(CNC(=O)c2cc(C3CC3)nn2C)cc1Cl [Compound 44, N-(5-chloro-4-ethoxy-2-fluorobenzyl)-3-cyclopropyl-1-methyl-1H-pyrazole-5-carboxamide] | 0.4
37 | CCCOc1c(Cl)cc(CNC(=O)c2cc(C(C)C)nn2C)cc1OC [Compound 42, N-(3-chloro-4-propoxy-5-methoxybenzyl)-3-isopropyl-1-methyl-1H-pyrazole-5-carboxamide] | 0.2
38 | COc1c(CNC(=O)c2cc(C3CC3)nn2C)cccc1OC(F)(F)F [Compound 36, 3-cyclopropyl-N-(2-methoxy-3-(trifluoromethoxy)benzyl)-1-methyl-1H-pyrazole-5-carboxamide] | 0.1
39 | CC(C)c1cc(C(=O)NCc2cccc(C(F)(F)F)c2Cl)n(C)n1 [Compound 4, N-(2-chloro-3-(trifluoromethyl)benzyl)-3-isopropyl-1-methyl-1H-pyrazole-5-carboxamide] | 0.1
40 | COc1c(CNC(=O)c2cc(C(C)C)nn2C)cccc1C(F)(F)F [Compound 25, 3-isopropyl-N-(2-methoxy-3-(trifluoromethyl)benzyl)-1-methyl-1H-pyrazole-5-carboxamide] | 0.4
41 | Cn1nc(C2CC2)cc1C(=O)NCc1cccc(OCC2CC2)c1F [Compound 10, 3-cyclopropyl-N-(3-(cyclopropylmethoxy)-2-fluorobenzyl)-1-methyl-1H-pyrazole-5-carboxamide] | 0.1
42 | COc1cccc(CNC(=O)c2cc(C(C)C)nn2C)c1C [Compound 29, 3-isopropyl-N-(3-methoxy-2-methylbenzyl)-1-methyl-1H-pyrazole-5-carboxamide] | 1.5
43 | CCOc1c(Br)cc(CNC(=O)c2cc(C3CC3)nn2C)cc1OC [Compound 41, N-(3-bromo-4-ethoxy-5-methoxybenzyl)-3-cyclopropyl-1-methyl-1H-pyrazole-5-carboxamide] | 0.4
